ChEMBL document CHEMBL4325853, “Design, synthesis and antibacterial evaluation of 2,4-disubstituted-6-thiophenyl-pyrimidines” (Eur J Med Chem, 2019)
In brackets after ≈: the same amount, converted by molar mass. Activity calls are given as the source filed them. The calls are words filed in the database; no cut-off is given here.

Tests used:
[1] = system: Staphylococcus aureus; assay: Antibacterial activity against methicillin-resistant Staphylococcus aureus isolate 7863 after 18 hrs by broth microdilution method; type: functional; details: isolate 7863, 18 h
[2] = system: Staphylococcus aureus; assay: Antibacterial activity against methicillin-resistant Staphylococcus aureus isolate 7183 after 18 hrs by broth microdilution method; type: functional; details: isolate 7183, 18 h
[3] = system: Staphylococcus aureus; assay: Antibacterial activity against methicillin-resistant Staphylococcus aureus isolate 7247 after 18 hrs by broth microdilution method; type: functional; details: isolate 7247, 18 h
[4] = system: Staphylococcus aureus; assay: Antibacterial activity against methicillin-resistant Staphylococcus aureus isolate 7813 after 18 hrs by broth microdilution method; type: functional; details: isolate 7813, 18 h
[5] = system: Enterococcus faecalis; assay: Antibacterial activity against vancomycin-resistant Enterococcus faecalis ATCC 51575 after 18 hrs by broth microdilution method; type: functional; details: ATCC 51575, 18 h
[6] = system: Staphylococcus aureus; assay: Antibacterial activity against methicillin-resistant Staphylococcus aureus isolate 6515 after 18 hrs by broth microdilution method; type: functional; details: isolate 6515, 18 h
[7] = system: Staphylococcus aureus; assay: Antibacterial activity against methicillin-resistant Staphylococcus aureus isolate 7434 after 18 hrs by broth microdilution method; type: functional; details: isolate 7434, 18 h
[8] = system: Staphylococcus aureus; assay: Antibacterial activity against methicillin-resistant Staphylococcus aureus isolate 3123 after 18 hrs by broth microdilution method; type: functional; details: isolate 3123, 18 h
[9] = system: Staphylococcus aureus; assay: Antibacterial activity against methicillin-resistant Staphylococcus aureus ATCC BAA41 after 18 hrs by broth microdilution method; type: functional; details: ATCC BAA41, 18 h
[10] = system: Staphylococcus aureus; assay: Antibacterial activity against methicillin-resistant Staphylococcus aureus isolate 4023 after 18 hrs by broth microdilution method; type: functional; details: isolate 4023, 18 h
[11] = system: Enterococcus faecium; assay: Potency index, ratio of berberine MIC to test compound MIC for Enterococcus faecium ATCC 49624; type: functional
[12] = system: Staphylococcus aureus; assay: Antibacterial activity against methicillin-resistant Staphylococcus aureus isolate 8078 after 18 hrs by broth microdilution method; type: functional; details: isolate 8078, 18 h
[13] = system: Staphylococcus aureus; assay: Antibacterial activity against methicillin-resistant Staphylococcus aureus isolate 8071 after 18 hrs by broth microdilution method; type: functional; details: isolate 8071, 18 h
[14] = system: Enterococcus faecalis; assay: Bactericidal activity against vancomycin-resistant Enterococcus faecalis ATCC 700221 after 18 hrs by broth microdilution method; type: functional; details: ATCC 700221, 18 h
[15] = system: Staphylococcus aureus; assay: Antibacterial activity against methicillin-resistant Staphylococcus aureus ATCC BAA1720 after 18 hrs by broth microdilution method; type: functional; details: ATCC BAA1720, 18 h
[16] = system: Staphylococcus aureus; assay: Antibacterial activity against methicillin-resistant Staphylococcus aureus isolate 5035 after 18 hrs by broth microdilution method; type: functional; details: isolate 5035, 18 h
[17] = system: Staphylococcus aureus; assay: Antibacterial activity against methicillin-resistant Staphylococcus aureus isolate 7943 after 18 hrs by broth microdilution method; type: functional; details: isolate 7943, 18 h
[18] = system: Staphylococcus aureus; assay: Antibacterial activity against methicillin-resistant Staphylococcus aureus isolate 1651 after 18 hrs by broth microdilution method; type: functional; details: isolate 1651, 18 h
[19] = system: Staphylococcus epidermidis; assay: Potency index, ratio of berberine MIC to test compound MIC for Staphylococcus epidermidis ATCC 12228; type: functional
[20] = system: Staphylococcus aureus; assay: Antibacterial activity against methicillin-resistant Staphylococcus aureus isolate 2350 after 18 hrs by broth microdilution method; type: functional; details: isolate 2350, 18 h
[21] = system: Staphylococcus aureus; assay: Antibacterial activity against methicillin-resistant Staphylococcus aureus isolate 2931 after 18 hrs by broth microdilution method; type: functional; details: isolate 2931, 18 h
[22] = system: Staphylococcus aureus; assay: Antibacterial activity against methicillin-resistant Staphylococcus aureus isolate 7807 after 18 hrs by broth microdilution method; type: functional; details: isolate 7807, 18 h
[23] = system: Staphylococcus aureus; assay: Antibacterial activity against methicillin-resistant Staphylococcus aureus isolate 7916 after 18 hrs by broth microdilution method; type: functional; details: isolate 7916, 18 h
[24] = system: Enterococcus faecalis; assay: Antibacterial activity against Enterococcus faecalis ATCC 29212 after 18 hrs by broth microdilution method; type: functional; details: ATCC 29212, 18 h
[25] = system: Staphylococcus aureus; assay: Antibacterial activity against methicillin-resistant Staphylococcus aureus isolate 1947 after 18 hrs by broth microdilution method; type: functional; details: isolate 1947, 18 h
[26] = system: Staphylococcus aureus; assay: Antibacterial activity against methicillin-resistant Staphylococcus aureus isolate 2491 after 18 hrs by broth microdilution method; type: functional; details: isolate 2491, 18 h
[27] = system: Enterococcus faecalis; assay: Ratio of MBC to MIC for vancomycin-resistant Enterococcus faecalis ATCC 700221; type: functional
[28] = system: Staphylococcus aureus; assay: Antibacterial activity against methicillin-resistant Staphylococcus aureus isolate 5395 after 18 hrs by broth microdilution method; type: functional; details: isolate 5395, 18 h
[29] = system: Staphylococcus aureus; assay: Antibacterial activity against methicillin-resistant Staphylococcus aureus isolate 8179 after 18 hrs by broth microdilution method; type: functional; details: isolate 8179, 18 h
[30] = system: Staphylococcus aureus; assay: Potency index, ratio of berberine MIC to test compound MIC for Staphylococcus aureus ATCC 29213; type: functional
[31] = system: Staphylococcus aureus; assay: Antibacterial activity against methicillin-resistant Staphylococcus aureus isolate 7536 after 18 hrs by broth microdilution method; type: functional; details: isolate 7536, 18 h
[32] = system: Staphylococcus aureus; assay: Antibacterial activity against methicillin-resistant Staphylococcus aureus isolate 7844 after 18 hrs by broth microdilution method; type: functional; details: isolate 7844, 18 h
[33] = system: Staphylococcus aureus; assay: Antibacterial activity against Staphylococcus aureus ATCC 29213 after 18 hrs by broth microdilution method; type: functional; details: ATCC 29213, 18 h
[34] = system: Staphylococcus aureus; assay: Antibacterial activity against methicillin-resistant Staphylococcus aureus isolate 7971 after 18 hrs by broth microdilution method; type: functional; details: isolate 7971, 18 h
[35] = system: Escherichia coli; assay: Antibacterial activity against Escherichia coli ATCC 25922 after 18 hrs by broth microdilution method; type: functional; details: ATCC 25922, 18 h
[36] = system: Staphylococcus aureus; assay: Antibacterial activity against methicillin-resistant Staphylococcus aureus isolate 5426 after 18 hrs by broth microdilution method; type: functional; details: isolate 5426, 18 h
[37] = system: Staphylococcus aureus; assay: Potency index, ratio of methicillin MIC to test compound MIC for methicillin-resistant Staphylococcus aureus ATCC 33591; type: functional
[38] = system: Staphylococcus aureus; assay: Antibacterial activity against methicillin-resistant Staphylococcus aureus isolate 1610 after 18 hrs by broth microdilution method; type: functional; details: isolate 1610, 18 h
[39] = system: Staphylococcus aureus; assay: Antibacterial activity against methicillin-resistant Staphylococcus aureus isolate 1220 after 18 hrs by broth microdilution method; type: functional; details: isolate 1220, 18 h
[40] = system: Staphylococcus aureus; assay: Antibacterial activity against methicillin-resistant Staphylococcus aureus isolate 5239 after 18 hrs by broth microdilution method; type: functional; details: isolate 5239, 18 h
[41] = biological target: T1, Cell division protein FtsZ (Staphylococcus aureus) (UniProt P0A031); assay: Inhibition of recombinant Staphylococcus aureus FtsZ polymerization at 8 ug/ml by 90 degree light scattering-based fluorescence spectrometric analysis
T1 sequence (whole entry): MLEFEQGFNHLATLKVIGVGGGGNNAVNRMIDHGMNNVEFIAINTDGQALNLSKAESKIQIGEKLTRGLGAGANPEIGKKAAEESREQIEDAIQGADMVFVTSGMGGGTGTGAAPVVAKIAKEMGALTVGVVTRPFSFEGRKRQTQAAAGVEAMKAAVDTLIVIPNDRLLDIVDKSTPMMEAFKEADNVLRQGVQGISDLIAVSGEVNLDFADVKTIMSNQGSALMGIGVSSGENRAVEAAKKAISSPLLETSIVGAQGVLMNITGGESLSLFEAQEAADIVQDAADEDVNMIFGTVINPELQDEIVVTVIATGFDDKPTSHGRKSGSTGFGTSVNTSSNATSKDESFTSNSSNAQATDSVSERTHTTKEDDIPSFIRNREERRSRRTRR

Structure (SMILES)	MIC90 [1] [µg/mL]	MIC90 [2] [µg/mL]	MIC90 [3] [µg/mL]	MIC90 [4] [µg/mL]	MIC90 [5] [µg/mL]	MIC90 [6] [µg/mL]	MIC90 [7] [µg/mL]	MIC90 [8] [µg/mL]	MIC90 [9] [µg/mL]	MIC90 [10] [µg/mL]	MIC90 [12] [µg/mL]	MIC90 [13] [µg/mL]	MIC90 [15] [µg/mL]	MIC90 [16] [µg/mL]	MIC90 [17] [µg/mL]	MIC90 [18] [µg/mL]	MIC90 [20] [µg/mL]	MIC90 [21] [µg/mL]	MIC90 [22] [µg/mL]	MIC90 [23] [µg/mL]	also measured
FC(F)(F)c1ccc(CN2CCCN(CCc3cc(-c4cccs4)nc(-c4ccncc4)n3)CC2)cc1	4 (≈ 7.64 µM)	4 (≈ 7.64 µM)	4 (≈ 7.64 µM)	8 (≈ 15.3 µM)	4 (≈ 7.64 µM)	4 (≈ 7.64 µM)	8 (≈ 15.3 µM)	4 (≈ 7.64 µM)	4 (≈ 7.64 µM)	4 (≈ 7.64 µM)	4 (≈ 7.64 µM)	4 (≈ 7.64 µM)	4 (≈ 7.64 µM)	4 (≈ 7.64 µM)	4 (≈ 7.64 µM)	8 (≈ 15.3 µM)	4 (≈ 7.64 µM)	4 (≈ 7.64 µM)	4 (≈ 7.64 µM)	4 (≈ 7.64 µM)	Ratio [11]: 50 - 100; MBC [14]: 8 µg/mL (≈ 15.3 µM); Ratio [19]: 50 - 100; MIC90 [24]: 4 µg/mL (≈ 7.64 µM); MIC90 [25]: 4 µg/mL (≈ 7.64 µM); MIC90 [26]: 8 µg/mL (≈ 15.3 µM); Ratio [27]: 2; MIC90 [28]: 4 µg/mL (≈ 7.64 µM); MIC90 [29]: 4 µg/mL (≈ 7.64 µM); Ratio [30]: 50 - 100; MIC90 [31]: 4 µg/mL (≈ 7.64 µM); MIC90 [32]: 4 µg/mL (≈ 7.64 µM); MIC90 [33]: 4 µg/mL (≈ 7.64 µM); MIC90 [34]: 4 µg/mL (≈ 7.64 µM); MIC90 [35]: 128 µg/mL (≈ 244 µM); MIC90 [36]: 8 µg/mL (≈ 15.3 µM); Ratio [37]: >100; MIC90 [38]: 8 µg/mL (≈ 15.3 µM); MIC90 [39]: 4 µg/mL (≈ 7.64 µM); MIC90 [40]: 4 µg/mL (≈ 7.64 µM)
COc1cccc(OC)c1C(=O)N[C@@H]1C(=O)N2[C@@H]1SC(C)(C)[C@@H]2C(=O)O [METHICILLIN]	> 64	> 64	> 64	> 64	6 (≈ 15.8 µM)	> 64	> 64	> 64	> 192	> 64	> 64	> 64	> 192	> 64	> 64	> 64	> 64	> 64	> 64	> 64	inhibition [41]: inactive; MIC90 [24]: 6 µg/mL (≈ 15.8 µM); MIC90 [25]: > 64 µg/mL; MIC90 [26]: > 64 µg/mL; MIC90 [28]: > 64 µg/mL; MIC90 [29]: > 64 µg/mL; MIC90 [31]: > 64 µg/mL; MIC90 [32]: > 64 µg/mL; MIC90 [33]: 1 µg/mL (≈ 2.63 µM); MIC90 [34]: > 64 µg/mL; MIC90 [35]: 4 µg/mL (≈ 10.5 µM); MIC90 [36]: > 64 µg/mL; MIC90 [38]: > 64 µg/mL; MIC90 [39]: > 64 µg/mL; MIC90 [40]: > 64 µg/mL
